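How tested: cells in 96-well plates exposed to compound for 48 hours at five concentrations. GI50: concentration for 50% inhibition of growth.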 Active and inactive are the calls of the source. Cut-off read from the data, not from the text of the source: active = GI50 up to about 1.1 µM and inactive = higher. Bounds are passed on as bounds.

The results in this text go back to ChEMBL document CHEMBL1201862, “PubChem BioAssay data set” (2004).

Test systems include NCI-H460; A549; SNB-19; HCT-116; UACC-257; M14; RXF 393; HCC 2998; MOLT-4; EKVX; ACHN; CAKI-1; SW-620; M19-MEL; SK-MEL-5; HT-29; OVCAR-8; T47D; Hs-578T.
What all share (assay): growth of human tumour cells (NCI), 48 h

Regarding `Cc1ccc(S(=O)(=O)N(/N=C(\N)Oc2ccc(Cl)cc2)C(=N)Oc2ccc(Cl)cc2)cc1`, the GI50 with NCI-H460, in the assay on A549, in the assay on SNB-19, in the assay with HCT-116, in the assay with UACC-257 and with M14 was > 100 µM (inactive) in each case. The GI50 with RXF 393 was 74.1 µM (inactive); in the assay on HCC 2998 it was > 100 µM (inactive); in the assay with MOLT-4, > 100 µM (inactive); with EKVX, > 100 µM (inactive); in the assay on ACHN, > 100 µM (inactive); in the assay on CAKI-1, > 100 µM (inactive). The GI50 in the assay on SW-620, with M19-MEL, in the assay with SK-MEL-5, with HT-29 and with OVCAR-8 was > 100 µM (inactive) in each case.

On to `COc1ccc(-c2oc3c(OC)c(OC)c(OC)c(O)c3c(=O)c2OC)cc1O`, for which the GI50 with NCI-H460 was 0.126 µM (active); in the assay on A549 it was 0.36 µM (active); in the assay with SNB-19, 0.347 µM (active); in the assay with HCT-116, 0.0783 µM (active); in the assay with UACC-257, 0.0583 µM (active); in the assay on M14 it was 0.0592 µM (active). Moreover, the GI50 in the assay on RXF 393 is 0.0559 µM (active); in the assay with HCC 2998, 2.11 µM (inactive); in the assay on MOLT-4 it was 0.0989 µM (active); in the assay with EKVX, 0.836 µM (active); with ACHN, 0.0656 µM (active); with CAKI-1 it was 0.557 µM (active). The GI50 with SW-620 was 0.038 µM (active); in the assay on M19-MEL it was 0.346 µM (active); in the assay on SK-MEL-5 it was 0.113 µM (active); with HT-29, 8.87 µM (inactive); in the assay with OVCAR-8 it was 0.341 µM (active).

Take `CC1=C(N2CC2)C(=O)c2nc3n(c2C1=O)CCC3O` (configuration not stated): the GI50 was 0.092 µM (active) in the assay with NCI-H460; 0.215 µM (active) with A549; 0.269 µM (active) in the assay with SNB-19; 0.193 µM (active) in the assay with HCT-116; 0.226 µM (active) in the assay on UACC-257; 1.32 µM (inactive) in the assay on M14. The GI50 with RXF 393 was 0.187 µM (active); with HCC 2998, 0.151 µM (active); in the assay with MOLT-4 it was 0.912 µM (active); with EKVX, 0.438 µM (active); in the assay on ACHN, 0.152 µM (active); in the assay on CAKI-1, 0.275 µM (active). Also, the GI50 was 0.153 µM (active) in the assay on SW-620; 0.395 µM (active) with T47D; 1.54 µM (inactive) in the assay with M19-MEL; 0.0216 µM (active) in the assay on SK-MEL-5; 0.973 µM (active) in the assay on HT-29; 0.201 µM (active) in the assay on OVCAR-8. The GI50 with Hs-578T is 0.0239 µM (active).

For the compound `O=C1CCC[C@]2(CCCC(=O)N2)C1`, the GI50 in the assay on NCI-H460, with A549, with SNB-19, in the assay on HCT-116, in the assay on UACC-257 and in the assay with M14 was > 100 µM (inactive) each time. Also, the GI50 in the assay on RXF 393, in the assay on HCC 2998, with MOLT-4, in the assay on EKVX, in the assay on ACHN and in the assay on CAKI-1 was > 100 µM (inactive) throughout. Also, the GI50 with SW-620, in the assay with M19-MEL, in the assay on SK-MEL-5, in the assay with HT-29 and in the assay on OVCAR-8 was > 100 µM (inactive) in each case.

In the case of `O=C1NC(=S)NC(=O)C1=Cc1ccc([N+](=O)[O-])o1`, the GI50 is > 100 µM (inactive) in the assay on NCI-H460; > 100 µM (inactive) in the assay with A549; > 100 µM (inactive) in the assay with SNB-19; 15 µM (inactive) in the assay with HCT-116; 44.2 µM (inactive) in the assay with UACC-257; 15.7 µM (inactive) in the assay with M14. In addition, the GI50 with RXF 393 is 19.3 µM (inactive); with HCC 2998, 60.7 µM (inactive); in the assay with MOLT-4, 19.7 µM (inactive); in the assay with EKVX, 21.1 µM (inactive); with ACHN, 18.4 µM (inactive); in the assay with CAKI-1, 19.5 µM (inactive). Further, the GI50 in the assay with SW-620 was 23 µM (inactive); in the assay on M19-MEL, 19.6 µM (inactive); in the assay on SK-MEL-5, 23.4 µM (inactive); in the assay on HT-29, 23.2 µM (inactive); with OVCAR-8, 29.4 µM (inactive).

As to `c1cc(N(CCn2cccn2)CCn2cccn2)cc(N(CCn2cccn2)CCn2cccn2)c1`, the GI50 in the assay on NCI-H460, in the assay on A549, in the assay with SNB-19, with HCT-116, with UACC-257 and with M14 was > 100 µM (inactive) in each case. For the same compound, the GI50 with RXF 393, in the assay with HCC 2998, in the assay on MOLT-4, in the assay with EKVX, in the assay on ACHN and in the assay on CAKI-1 was > 100 µM (inactive) throughout. The GI50 with SW-620, with M19-MEL, in the assay on SK-MEL-5 and with OVCAR-8 was > 100 µM (inactive) each time.

`O=C(/C=C/c1ccc(Cl)c(Cl)c1)c1ccccc1Cl`: the GI50 in the assay on NCI-H460 is 11.6 µM (inactive); in the assay on A549, 15.8 µM (inactive); with SNB-19, 10.3 µM (inactive); in the assay on HCT-116, 4.71 µM (inactive); with UACC-257, 14.3 µM (inactive); in the assay with M14 it was 6.24 µM (inactive). The GI50 with RXF 393 is 17.2 µM (inactive); with HCC 2998, 10.5 µM (inactive); in the assay with MOLT-4, 27.7 µM (inactive); in the assay on EKVX, 17.3 µM (inactive); in the assay on ACHN it was 15.3 µM (inactive); in the assay with CAKI-1, 9.89 µM (inactive). Besides, the GI50 in the assay with SW-620 was 4.91 µM (inactive); with M19-MEL, 7.18 µM (inactive); in the assay with SK-MEL-5, 13.7 µM (inactive); in the assay with HT-29 it was 6.07 µM (inactive); with OVCAR-8, 6 µM (inactive).

As to `COc1cc(C2C(Cl)C(=O)N2n2cnc3ccccc3c2=O)ccc1O` (configuration not stated), the GI50 in the assay with NCI-H460 was > 100 µM (inactive); with A549, > 100 µM (inactive); with SNB-19 it was > 100 µM (inactive); in the assay on HCT-116, > 100 µM (inactive); with UACC-257, 25.4 µM (inactive); with M14, > 100 µM (inactive). The GI50 in the assay with RXF 393 is 67.6 µM (inactive); with HCC 2998, > 100 µM (inactive); with MOLT-4, > 100 µM (inactive); in the assay with EKVX, > 100 µM (inactive); in the assay with ACHN, > 100 µM (inactive); with CAKI-1, 70.6 µM (inactive). The GI50 in the assay on SW-620, in the assay with M19-MEL, with SK-MEL-5, in the assay on HT-29 and in the assay with OVCAR-8 was > 100 µM (inactive) throughout.

Consider `Oc1ccncc1-c1cnccc1O`, for which the GI50 in the assay with NCI-H460 is 37.5 µM (inactive); in the assay on A549, > 100 µM (inactive); in the assay with HCT-116, > 100 µM (inactive); with UACC-257, > 100 µM (inactive); in the assay on M14, > 100 µM (inactive); with RXF 393, > 100 µM (inactive). Further, the GI50 with HCC 2998, with MOLT-4, with EKVX, in the assay on ACHN, in the assay on CAKI-1 and in the assay on SW-620 was > 100 µM (inactive) in each case. Moreover, the GI50 in the assay on M19-MEL, in the assay on SK-MEL-5, in the assay with HT-29 and in the assay with OVCAR-8 was > 100 µM (inactive) in each case.

As to `Cc1cc(C)cc(NC(=O)CCC(=O)C2CCC/C2=N\NC(=O)C(=O)NN)c1` (configuration not stated), the GI50 with NCI-H460, with A549, with SNB-19, in the assay on HCT-116, in the assay on UACC-257 and with M14 was > 100 µM (inactive) in each case. For the same compound, the GI50 with RXF 393, with HCC 2998, with MOLT-4, in the assay on EKVX, in the assay with ACHN and in the assay with CAKI-1 was > 100 µM (inactive) in each case. Further, the GI50 with SW-620, in the assay with M19-MEL, in the assay with SK-MEL-5, in the assay with HT-29 and in the assay on OVCAR-8 was > 100 µM (inactive) throughout.

On to `COc1cc2c3cc1Oc1c(OC)c(OC)cc4c1[C@@H](Cc1ccc(O)c(c1)Oc1ccc(cc1)C[C@@H]3N(C)CC2)N(C)CC4.c1ccccc1`, for which the GI50 in the assay on NCI-H460 is 25.2 µM (inactive); in the assay on A549, 22.5 µM (inactive); with SNB-19, 20.4 µM (inactive); with HCT-116, 9.16 µM (inactive); in the assay on UACC-257, 3.36 µM (inactive); in the assay on M14 it was 4.61 µM (inactive). The GI50 with RXF 393 was 12.4 µM (inactive); in the assay on HCC 2998, 7.93 µM (inactive); in the assay on MOLT-4 it was 10.9 µM (inactive); with EKVX, 13.9 µM (inactive); in the assay with ACHN it was 17.3 µM (inactive); in the assay with CAKI-1, 1.79 µM (inactive). Besides, the GI50 with SW-620 is 16.2 µM (inactive); in the assay with M19-MEL, 13.4 µM (inactive); in the assay on SK-MEL-5, 3.89 µM (inactive); in the assay with HT-29, 10.7 µM (inactive); in the assay with OVCAR-8, 16.8 µM (inactive).
